Experimental data reported in PubChem BioAssay (NCI).
Several values for one entry are separate records, joined by “and”; a condition that tells them apart may be missing. Equal entries are not always repeated.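 Where inhibition never reached the appropriate level, the endpoint shown equals the highest concentration tested. Otherwise, values were interpolated linearly from a five-concentration, 48-hour dose response in 96-well plates. The concentration for 50% growth inhibition is given as GI50. TGI denotes the concentration required for complete inhibition of growth.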

How the values were obtained:
Assay in all cases: NCI anticancer screen, dose series, 48 h
786-0 renal = system: 786-0 renal
A498 renal = system: A498 renal
BT-549 breast = system: BT-549 breast
HCT-116 colon = system: HCT-116 colon
MDA-MB-435 = system: MDA-MB-435
NCI-H23 lung = system: NCI-H23 lung
OVCAR-5 ovarian = system: OVCAR-5 ovarian
SK-MEL-2 melanoma = system: SK-MEL-2 melanoma
SK-MEL-5 melanoma = system: SK-MEL-5 melanoma
SNB-19 CNS = system: SNB-19 CNS

SMILES	GI50 (786-0 renal)	TGI (786-0 renal)	GI50 (A498 renal)	TGI (A498 renal)	GI50 (BT-549 breast)	TGI (BT-549 breast)	GI50 (HCT-116 colon)	TGI (HCT-116 colon)	GI50 (MDA-MB-435)	TGI (MDA-MB-435)	GI50 (NCI-H23 lung)	TGI (NCI-H23 lung)	GI50 (OVCAR-5 ovarian)	TGI (OVCAR-5 ovarian)	GI50 (SK-MEL-2 melanoma)	TGI (SK-MEL-2 melanoma)	GI50 (SK-MEL-5 melanoma)	TGI (SK-MEL-5 melanoma)	GI50 (SNB-19 CNS)	TGI (SNB-19 CNS)
CCCOc1c2cc(COC3OC(CO)C(O)C(O)C3O)cc1Cc1cc(COC3OC(CO)C(O)C(O)C3O)cc(c1OCCC)Cc1cc(COC3OC(CO)C(O)C(O)C3O)cc(c1OCCC)Cc1cc(COC3OC(CO)C(O)C(O)C3O)cc(c1OCCC)C2 (configuration not stated)	> 100 µM and 28.1 µM	> 100 µM and 89.8 µM	88.4 µM and > 100 µM and 16.3 µM	> 100 µM and 42.5 µM	> 100 µM and 72.8 µM and 21.8 µM	> 100 µM and 36.4 µM	48.6 µM and > 100 µM and 16.7 µM	> 100 µM and 32.2 µM	57.2 µM and > 100 µM and 20.6 µM	> 100 µM and 41.1 µM	69.6 µM and 71 µM and 21.2 µM	> 100 µM and 52.8 µM	41.8 µM and > 100 µM and 22 µM	> 100 µM and 55.2 µM	57 µM and 96.4 µM and 15.7 µM	> 100 µM and 35.6 µM	96.7 µM and > 100 µM and 17.1 µM	> 100 µM and 32.7 µM	66.1 µM and > 100 µM and 17.5 µM	> 100 µM and 32.1 µM
C#Cc1ccc(-n2c(/C=C/c3cc(OC)c(OC)c(OC)c3)nc3ncccc3c2=O)cc1	5.31 µM	> 100 µM	2.63 µM	9.84 µM	2.99 µM	9.95 µM	5.17 µM	> 100 µM	1.98 µM	5.35 µM	17.3 µM	> 100 µM	> 100 µM	> 100 µM	4.54 µM	22.1 µM	1.78 µM	4.4 µM	16.2 µM	> 100 µM
COc1ccc(-n2nc(C)c3c2N(C)C2(C)C[C@@H]4C3(C)[C@@H]3CC4(C2)N(C)c2c(c(C)nn2-c2ccc(OC)cc2)[C@H]3C)cc1 (some centres not stated)	5.47 µM	29.6 µM	3.95 µM	26.9 µM	4.17 µM	> 100 µM	2.09 µM	> 100 µM	–	–	18.7 µM	99.9 µM	> 100 µM	> 100 µM	7.29 µM	23.3 µM	–	–	4.45 µM	86.3 µM
CCOC(=O)Cc1csc(NC(=O)C(OC(=O)c2ccc(N)cc2)c2ccccc2)n1 (configuration not stated)	48.6 µM	> 100 µM	72.1 µM	> 100 µM	40.3 µM	> 100 µM	30.8 µM	> 100 µM	31.1 µM	> 100 µM	–	–	> 100 µM	> 100 µM	40.2 µM	> 100 µM	18.9 µM	39.1 µM	53 µM	> 100 µM
COC1C(CO)OC(n2c3ccccc3c3c4c(c5c6ccccc6[nH]c5c32)C(=O)NC4=O)C(O)C1OC(=O)C(N)CCCCN (configuration not stated)	0.653 µM	> 21.5 µM	0.917 µM	3.11 µM	0.807 µM	5.62 µM	–	–	1.07 µM	5.04 µM	2.79 µM	> 50 µM	3.12 µM	> 50 µM	1.93 µM	9.91 µM	0.208 µM	0.838 µM	1.31 µM	> 50 µM
CCC1(N2C(=O)c3c(F)c(F)c(F)c(F)c3C2=O)C(=O)NC(=O)N(c2ccccc2)C1=O (configuration not stated)	3.34 µM	13.9 µM	12.2 µM	25.9 µM	2.1 µM	4.76 µM	4.1 µM	18.2 µM	2.89 µM	8.02 µM	1.99 µM	4.02 µM	1.69 µM	3.43 µM	3.84 µM	> 100 µM	–	–	3.93 µM	16.9 µM
O=C(CC(C(=O)O)N1CCOCC1)c1ccccc1 (configuration not stated)	–	30.1 µM	–	63 µM	–	33.5 µM	–	27 µM	–	–	–	40.6 µM	–	47.3 µM	–	34.9 µM	–	43 µM	–	53.4 µM
Nc1ncnc2c1ncn2Cc1ccc(C23CC4CC(CC(C4)C2)C3)c(O)c1	25.6 µM	> 100 µM	15.8 µM	49.8 µM	23.5 µM	> 100 µM	8.91 µM	> 100 µM	15 µM	> 100 µM	–	–	> 100 µM	> 100 µM	> 100 µM	> 100 µM	4.02 µM	88.2 µM	30.3 µM	> 100 µM
CN1c2ccccc2C(=O)Nc2cnc(Cl)nc21	–	> 100 µM	–	> 100 µM	–	–	–	> 100 µM	–	> 100 µM	–	> 100 µM	–	> 100 µM	–	> 100 µM	–	> 100 µM	–	> 100 µM
CC[C@@]1(OC(=O)CN(C)C)C(=O)OCc2c1cc1n(c2=O)Cc2cc3ccccc3nc2-1	–	1.11 µM and 0.125 µM	0.0851 µM	0.984 µM and 0.317 µM	0.116 µM	4.09 µM and 8.64 µM	0.0391 µM	–	–	1.54 µM	0.0207 µM	0.342 µM and 0.381 µM	0.184 µM	2.93 µM and 5.92 µM	1.09 µM	3.47 µM and 5.34 µM	0.0379 µM	0.316 µM and 0.213 µM	–	–
COC(=O)C(=O)C(C(=O)C(=O)Nc1ccccc1C(N)=O)c1nc2ccc(C(=O)c3ccccc3)cc2[nH]c1=O (configuration not stated)	–	> 100 µM	–	> 100 µM	–	–	–	> 100 µM	–	–	–	> 100 µM	–	> 100 µM	–	> 100 µM	–	> 100 µM	–	> 100 µM
COc1ccccc1NC(=O)C(=O)C1C(=O)Nc2ccccc2S1=O (configuration not stated)	–	> 100 µM	–	> 100 µM	–	–	–	> 100 µM	–	–	–	> 100 µM	–	> 100 µM	–	> 100 µM	–	> 100 µM	–	> 100 µM
COc1ncnc2c(-c3ccco3)cn(COCc3ccccc3)c12	17.7 µM	> 50 µM	0.697 µM	> 50 µM	–	–	3.76 µM	> 50 µM	> 50 µM	> 50 µM	> 50 µM	> 50 µM	> 50 µM	> 50 µM	48.8 µM	> 50 µM	1.28 µM	> 50 µM	> 50 µM	> 50 µM
CCC1NCC(=O)c2c1[nH]c1ccccc21 (configuration not stated)	–	> 100 µM	–	> 100 µM	–	–	–	> 100 µM	–	–	–	> 100 µM	–	> 100 µM	–	> 100 µM	–	> 100 µM	–	> 100 µM
CCOC(=O)C1=C(c2ccccc2)N(Cc2ccccc2)C2(O)C=CC(=O)C3C(=O)N(c4ccccc4)C(=O)C132 (configuration not stated)	2.11 µM	5.34 µM	1.62 µM	3.12 µM	1.76 µM	3.58 µM	–	–	1.95 µM	4.51 µM	2.12 µM	5.59 µM	3.23 µM	15.5 µM	–	–	1.49 µM	2.93 µM	2 µM	4.59 µM
CC(C)=C1CCC(CN2CCCC2)C1=O (configuration not stated)	–	30.8 µM	–	> 100 µM	–	–	–	31.6 µM	–	–	–	> 100 µM	–	> 100 µM	–	77.2 µM	–	> 100 µM	–	> 100 µM
